Assay results published in US20100130469A1, “2, 6-NAPHTHRIDINE DERIVATIVES” (priority 2007, published 2010).

Key:
[1] = tested on: Bone marrow cells from CBA mice; test: Bone Marrow Cell Proliferation (BM) assay; format: cell-based; details: mouse cells
Method: Bone marrow cells from CBA mice (2.5×10^4 cells per well in flat bottom tissue culture microtiter plates) are incubated in 100 μL RPMI medium containing 10% FCS, 100 U/mL penicillin, 100 μg/mL streptomycin (Gibco BRL, Baselm Switzerland), 50 μM 2-mercaptoethanol (Fluka, Buchs, Switzerland), WEHI-3 conditioned medium (7.5% v/v) and L929 conditioned medium (3% v/v) as a source of growth factors and serially diluted compounds. Seven three-fold dilution steps in duplicates per test compounds are performed. After four days of incubation 1 μCi ^3H-thymidine is added. Cells are harvested after an additional five-hour incubation period, and incorporated ^3H-thymidine is determined according to standard procedures. Conditioned media are prepared as follows. WEHI-3 cells (ATCC TIB68) and L929 cells (ATCC CCL 1) are grown in RPMI medium until confluence for 4 days and one week, respectively. Cells are harvested, resuspended in the same culture flasks in medium C containing 1% FCS (Schreier and Tess 1981) for WEHI-3 cells and RPMI medium for L929 cells and incubated for 2 days (WEHI-3) or one week (L929). The supernatant is collected, filtered through 0.2 μm and stored in aliquots at −80° C. Cultures without test compounds and without WEHI-3 and L929 supernatants are used as low control values. Low control values are substracted from all values. […]

PKCε = molecular target: T1, PKCε (Homo sapiens, UniProt Q02156); test: Protein Kinase Cε assay; format: biochemical; details: ratio of IC50 values
T1 construct: purchased Oxford Biomedical Research
T1 sequence (Q02156 1-737): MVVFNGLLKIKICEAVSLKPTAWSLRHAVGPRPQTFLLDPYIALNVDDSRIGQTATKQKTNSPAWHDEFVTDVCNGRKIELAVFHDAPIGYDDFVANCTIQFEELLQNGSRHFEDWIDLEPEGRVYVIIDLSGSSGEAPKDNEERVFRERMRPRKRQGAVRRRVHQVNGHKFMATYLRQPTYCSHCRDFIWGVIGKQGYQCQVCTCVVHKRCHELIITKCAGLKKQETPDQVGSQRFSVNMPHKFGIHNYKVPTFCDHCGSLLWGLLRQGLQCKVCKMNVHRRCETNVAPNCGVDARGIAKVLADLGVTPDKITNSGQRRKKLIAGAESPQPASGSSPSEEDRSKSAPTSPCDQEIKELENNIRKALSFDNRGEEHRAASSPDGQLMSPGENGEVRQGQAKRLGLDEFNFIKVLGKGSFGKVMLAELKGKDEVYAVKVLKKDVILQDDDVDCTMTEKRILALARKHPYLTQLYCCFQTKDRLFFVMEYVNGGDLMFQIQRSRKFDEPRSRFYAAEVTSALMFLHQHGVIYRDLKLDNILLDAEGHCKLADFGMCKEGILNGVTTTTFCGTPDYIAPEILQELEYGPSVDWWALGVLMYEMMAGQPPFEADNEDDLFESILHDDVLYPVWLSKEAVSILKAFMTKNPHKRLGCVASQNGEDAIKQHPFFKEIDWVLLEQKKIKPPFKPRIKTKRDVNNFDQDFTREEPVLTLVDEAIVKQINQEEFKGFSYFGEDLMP
Method: (§1) The compounds of the invention are tested for their activity on different PKC isotypes according to the following method. Assay is performed in a white with clear bottom 384-well microtiterplate with non-binding surface. The reaction mixture (25 μl) contains 1.5 μM of a tridecapeptide acceptor substrate that mimics the pseudo substrate sequence of PKC a with the Ala→Ser replacement, 10 μM ^33P-ATP, 10 mM Mg(NO3)2, 0.2 mM CaCl2, PKC at a protein concentration varying from 25 to 400 ng/ml (depending on the isotype used), lipid vesicles (containing 30 mol % phosphatidylserine, 5 mol % DAG and 65 mol % phosphatidylcholine) at a final lipid concentration of 0.5 mM, in 20 mM Tris-HCl buffer pH 7.4+0.1% BSA. Incubation is performed for 60 min at room temperature.
Human recombinant PKCη was obtained from Oxford Biomedical Research and is used under the assay conditions as described under Section A.1 above.

PKCθ = PKCθ (Homo sapiens, UniProt Q04759); test: Protein Kinase C θ assay; format: biochemical; details: ratio of IC50 values
Chain of PKCθ (Q04759 whole entry): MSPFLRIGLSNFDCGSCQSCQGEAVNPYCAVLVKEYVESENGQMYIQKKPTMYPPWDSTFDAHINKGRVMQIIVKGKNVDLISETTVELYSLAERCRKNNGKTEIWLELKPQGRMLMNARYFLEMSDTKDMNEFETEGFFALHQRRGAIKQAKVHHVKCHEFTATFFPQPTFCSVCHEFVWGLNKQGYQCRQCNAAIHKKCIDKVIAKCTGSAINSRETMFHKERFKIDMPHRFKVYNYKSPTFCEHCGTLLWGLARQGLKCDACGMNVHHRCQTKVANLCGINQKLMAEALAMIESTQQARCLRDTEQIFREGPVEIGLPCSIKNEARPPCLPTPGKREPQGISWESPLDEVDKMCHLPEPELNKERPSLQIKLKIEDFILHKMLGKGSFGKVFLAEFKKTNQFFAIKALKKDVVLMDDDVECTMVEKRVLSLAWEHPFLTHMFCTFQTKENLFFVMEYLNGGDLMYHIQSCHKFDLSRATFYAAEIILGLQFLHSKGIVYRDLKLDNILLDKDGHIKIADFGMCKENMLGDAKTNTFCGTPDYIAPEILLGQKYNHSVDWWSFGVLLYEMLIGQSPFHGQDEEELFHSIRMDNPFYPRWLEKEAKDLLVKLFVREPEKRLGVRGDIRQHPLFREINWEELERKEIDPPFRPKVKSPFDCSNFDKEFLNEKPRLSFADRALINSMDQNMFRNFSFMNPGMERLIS
Method: as §1
Human recombinant PKCθ is used under the assay conditions as described above.

PKCα = molecular target: T2, PKCα (Homo sapiens, UniProt P17252); test: Protein Kinase Cα assay; format: biochemical; details: ratio of IC50 values
T2 construct: purchased Oxford Biomedical Research
Method: as §1
Human recombinant PKCα was obtained from Oxford Biomedical Research and is used under the assay conditions as described under Section A.1 above.

PKCδ = molecular target: T3, PKCδ (Homo sapiens, UniProt Q05655); test: Protein Kinase Cδ assay; format: biochemical; details: ratio of IC50 values
T3 construct: purchased Oxford Biomedical Research
T3 sequence (Q05655 whole entry): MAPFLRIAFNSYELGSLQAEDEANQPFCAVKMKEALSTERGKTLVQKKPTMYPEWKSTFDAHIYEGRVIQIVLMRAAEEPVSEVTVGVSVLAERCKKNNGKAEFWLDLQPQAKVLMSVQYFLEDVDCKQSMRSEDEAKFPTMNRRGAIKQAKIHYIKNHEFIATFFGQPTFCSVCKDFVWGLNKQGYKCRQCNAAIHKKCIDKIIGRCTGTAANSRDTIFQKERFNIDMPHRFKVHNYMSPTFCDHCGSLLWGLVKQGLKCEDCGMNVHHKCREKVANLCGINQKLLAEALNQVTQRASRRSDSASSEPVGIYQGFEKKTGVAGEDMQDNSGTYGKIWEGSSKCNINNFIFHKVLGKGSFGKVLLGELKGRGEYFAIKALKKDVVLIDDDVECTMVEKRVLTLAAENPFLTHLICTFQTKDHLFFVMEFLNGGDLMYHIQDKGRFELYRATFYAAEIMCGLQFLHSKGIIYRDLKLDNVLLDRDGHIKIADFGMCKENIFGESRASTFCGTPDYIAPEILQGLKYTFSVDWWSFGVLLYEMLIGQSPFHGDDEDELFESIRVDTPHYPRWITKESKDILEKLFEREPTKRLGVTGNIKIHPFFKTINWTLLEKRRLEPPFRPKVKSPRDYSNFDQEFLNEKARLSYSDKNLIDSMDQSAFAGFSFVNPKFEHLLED
Method: as §1
Human recombinant PKC was obtained from Oxford Biomedical Research and is used under the assay conditions as described under Section A.1 above.

PKCβ1 = molecular target: T4, PKCβ1 (Homo sapiens, UniProt P05771); test: Protein Kinase Cβ1 assay; format: biochemical; details: ratio of IC50 values
T4 construct: purchased Oxford Biomedical Research
T4 sequence (P05771 whole entry): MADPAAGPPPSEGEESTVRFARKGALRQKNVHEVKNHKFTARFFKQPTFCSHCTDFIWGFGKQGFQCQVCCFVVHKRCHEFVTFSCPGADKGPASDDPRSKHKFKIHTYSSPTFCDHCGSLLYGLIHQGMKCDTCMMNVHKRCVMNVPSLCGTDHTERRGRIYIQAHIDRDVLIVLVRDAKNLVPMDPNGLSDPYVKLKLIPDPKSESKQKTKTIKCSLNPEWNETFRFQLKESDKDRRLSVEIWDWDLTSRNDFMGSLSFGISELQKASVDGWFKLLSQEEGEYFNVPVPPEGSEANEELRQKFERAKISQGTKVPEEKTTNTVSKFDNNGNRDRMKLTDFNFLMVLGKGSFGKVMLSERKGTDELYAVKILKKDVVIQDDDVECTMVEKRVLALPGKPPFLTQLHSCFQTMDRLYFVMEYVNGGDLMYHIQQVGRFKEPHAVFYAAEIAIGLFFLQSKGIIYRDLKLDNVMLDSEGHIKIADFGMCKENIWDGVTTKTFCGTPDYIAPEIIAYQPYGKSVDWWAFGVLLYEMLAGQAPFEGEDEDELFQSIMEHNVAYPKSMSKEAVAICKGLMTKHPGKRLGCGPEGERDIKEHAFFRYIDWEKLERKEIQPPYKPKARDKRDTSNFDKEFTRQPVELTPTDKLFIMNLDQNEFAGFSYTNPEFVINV
Method: as §1
Human recombinant PKCβ1 was obtained from Oxford Biomedical Research and is used under the assay conditions as described under Section A.1 above.

PKCη = molecular target: T5, PKCη (Homo sapiens, UniProt P24723); test: Protein Kinase Cη assay; format: biochemical; details: human recombinant PKCη
T5 construct: purchased PanVera
T5 sequence (P24723 whole entry): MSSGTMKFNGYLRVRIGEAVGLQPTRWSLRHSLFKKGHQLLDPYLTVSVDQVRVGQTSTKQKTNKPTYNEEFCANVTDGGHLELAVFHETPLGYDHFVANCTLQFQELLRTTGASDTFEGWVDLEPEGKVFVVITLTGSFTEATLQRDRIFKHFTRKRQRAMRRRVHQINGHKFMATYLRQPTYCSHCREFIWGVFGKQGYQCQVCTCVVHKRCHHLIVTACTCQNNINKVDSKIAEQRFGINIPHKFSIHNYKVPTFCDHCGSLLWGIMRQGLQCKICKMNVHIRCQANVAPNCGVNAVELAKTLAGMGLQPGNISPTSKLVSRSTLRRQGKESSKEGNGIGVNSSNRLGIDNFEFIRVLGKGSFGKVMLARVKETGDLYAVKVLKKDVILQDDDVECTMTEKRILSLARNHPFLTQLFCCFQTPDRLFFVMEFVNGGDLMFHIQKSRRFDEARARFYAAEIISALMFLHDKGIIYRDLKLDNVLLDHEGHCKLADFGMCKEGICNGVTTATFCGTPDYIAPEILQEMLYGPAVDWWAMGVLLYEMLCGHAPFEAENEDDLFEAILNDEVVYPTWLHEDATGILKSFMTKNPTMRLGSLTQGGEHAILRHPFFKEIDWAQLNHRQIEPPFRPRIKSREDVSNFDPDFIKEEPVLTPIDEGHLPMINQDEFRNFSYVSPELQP
Method: as §1
Human recombinant PKCη was obtained from PanVera and is used under the assay conditions as described under Section A.1 above.

| SMILES | BM/MLR: ratio of IC50 values of BM assay and MLR assay [1] | ε/η: ratio of the IC50 value for PKCε to the IC50 value for PKCη (PKCε) | θ/η: ratio of the IC50 value for PKCθ to the IC50 value for PKCη (PKCθ) | α/η: ratio of the IC50 value for PKCα to the IC50 value for PKCη (PKCα) | δ/η: ratio of the IC50 value for PKCδ to the IC50 value for PKCη (PKCδ) | β/η: ratio of the IC50 value for PKC β to the IC50 value for PKCη (PKCβ1) | IC50 (PKCη) |
| --- | --- | --- | --- | --- | --- | --- | --- |
| C[C@@H]1CN(c2nc(-c3ccncc3)cc3cnccc23)[C@@H](C)CN1 (racemic) [Example 23, Rac-1-((2S,5R)-2,5-Dimethyl-piperazin-1-yl)-3-pyridin-4-yl-[2,6]naphthyridine] | 24 | 1 | 26 | 17 | 15 | 14 |  |
| C[C@H](N)CNc1nc(-c2ccncc2)cc2cnccc12 [Example 71a, (S)—N*1*-(3-Pyridin-4-yl-[2,6]naphthyridin-1-yl)-propane-1,2-diamine] | 30 | 3 | 30 | 506 | 4 | 196 |  |
| CC(C)(N)COc1nc(-c2ccncc2)cc2cnccc12 [Example 81, 1,1-Dimethyl-2-(3-pyridin-4-yl-[2,6]naphthyridin-1-yloxy)-ethylamine] |  |  |  |  |  |  | 162 nM |
| CC(C)(N)CNc1cc(-c2ccncc2)cc2cnccc12 [Example 83, 2-Methyl-N*1*-(7-pyridin-4-yl-isoquinolin-5-yl)-propane-1,2-diamine] |  |  |  |  |  |  | 54 nM |
